Values quoted from earlier work, collected in patent US20050220753A1, “Hydrophilic polymers-flavoids conjugates and pharmaceutical compositions comprising them” (BEIJING JIANKAI TECHNOLOGY CO., LTD, priority 2002, published 2005).
Read-outs that look alike come from different tables or passages of the source.

Assays:
[1] = rats, intravenous injection
[2] = human, intravenously infused

SMILES | absorption half-life [1] | elimination half-life [1] | elimination half-life [2]
O=c1cc(-c2ccccc2)oc2cc(O)c(O)c(O)c12 [Baicalein] | 13 min | 42 min | 
O=c1c(-c2ccc(O)cc2)coc2c([C@@H]3O[C@H](CO)[C@@H](O)[C@H](O)[C@H]3O)c(O)ccc12 [Puerarin] |  |  | 74 min
